According to patent US9862679B2, “Potent and selective inhibitors of monoamine transporters; method of making; and use thereof” (priority 2013, dated 2018):

How the values were obtained:
[1] = biological target: dopamine transporter (DAT) (Rattus norvegicus (Rat), UniProt P23977); experiment: Dopamine Transporter Binding Assay ([3H]WIN 35428, rat striatal membranes); details: rat brain membranes; Table 1 thioacetamides and sulfinylacetamides; read-out: Ki (nM) ± S.E.M. DAT
[2] = biological target: norepinephrine transporter (NET) (Rattus norvegicus, UniProt Q63380); details: read-out: Ki (nM) ± S.E.M. NET; rat brain membranes; Table 1 thioacetamides and sulfinylacetamides
Procedure: Binding affinities of all compounds were evaluated at the DAT, SERT, and NET in rat brain membranes using previously described methods:
Norepinephrine Transporter Binding Assay. Brains from male Sprague-Dawley rats weighing 200-225 g (Taconic Labs, Germantown, N.Y.) were removed, frontal cortex dissected and rapidly frozen. Membranes were prepared by homogenizing tissues in 20 volumes (w/v) of 50 mM Tris containing 120 mM NaCl and 5 mM KCl, (pH 7.4 at 25° C.), using a Brinkman Polytron and centrifuged at 50,000×g for 10 min at 4° C. The resulting pellet was resuspended in buffer, recentrifuged and resuspended in buffer to a concentration of 80 mg/mL. Ligand binding experiments were conducted in assay tubes containing 0.5 mL buffer for 60 min at 0-4° C. […] Nonspecific binding was determined using 1 mM desipramine. Incubations were terminated by rapid filtration through Whatman GF/B filters, presoaked in 0.05% polyethylenimine, using a Brandel R48 filtering manifold (Brandel Instruments Gaithersburg, Md.). The filters were washed twice with 3 mL cold buffer and transferred to scintillation vials. Beckman Ready Value (3.0 mL) was added and the vials were counted using a Beckman 6000 liquid scintillation counter (Beckman Coulter Instruments, Fullerton, Calif.). […] All compounds were tested as racemic mixtures.

[3] = biological target: serotonin transporter (SERT) (Rattus norvegicus (Rat), UniProt P31652); experiment: biochemical
Procedure: Brains from male Sprague-Dawley rats weighing 200-225 g (Taconic Labs, Germantown, N.Y.) were removed, midbrain dissected and rapidly frozen. […] Nonspecific binding was determined using 10 mM fluoxetine. […] The filters were washed twice with 3 mL cold buffer and transferred to scintillation vials. Beckman Ready Value (3.0 mL) was added and the vials were counted the next day using a Beckman 6000 liquid scintillation counter (Beckman Coulter Instruments, Fullerton, Calif.). […] Data were analyzed with GraphPad Prism software (San Diego, Calif.).

[4] = Phase II (glucuronidation, UDPGA) metabolic stability in mouse liver microsomes; type: in vitro ADME
Procedure: (§1) Phase I and phase II metabolic stability assay for was conducted in mouse liver microsomes. For phase I metabolism, the reaction was carried out with 100 mM potassium phosphate buffer, pH 7.4, in the presence of NADPH regenerating system (1.3 mM NADPH, 3.3 mM glucose 6-phosphate, 3.3 mM MgCl2, 0.4 U/mL glucose-6-phosphate dehydrogenase, 50 μM sodium citrate). Reactions in duplicate were initiated by addition of the liver microsomes to the incubation mixture (compound final concentration was 10 μM; 0.5 mg/mL microsomes). For phase II glucuronidation reaction compound was added to TRIS-HCl buffer (50 mM, pH 7.5) with microsomes (0.5 mg/mL), along with MgCl2 (8 mM), and alamethicin (25 μg/mL) and pre-incubated at 37° C. The reaction was initiated (in duplicate) with UDPGA at a final concentration of 2 mM. Negative controls in the absence NADPH and UDPGA were carried for both phase I and phase II metabolism respectively, to determine the specific cofactor free degradation. […] At predetermined times (0, 15, 30 and 60 min) aliquots of the mixture were removed and the reaction quenched by addition of two times the volume of ice cold acetonitrile spiked with the internal standard. Compound disappearance was monitored over time using a liquid chromatography and tandem mass spectrometry (LC/MS/MS) method.
(§2) Compounds were separated on an Agilent 1290 UPLC system with a c18 column using a gradient run of 55:45-5:95 water:acetonitrile over 3.2 minutes and detected on an Agilent 6520 QTOF mass spectrometer.

[5] = Phase I metabolic stability in mouse liver microsomes (NADPH); type: in vitro ADME; details: 10 μM
Procedure: as §1, §2

[6] = Metabolic stability in mouse plasma; type: in vitro ADME; details: for Metabolic stability, Plasma (% remaining): mouse plasma, 10 μM
Procedure: The metabolic stability was evaluated using mouse plasma and mouse liver microsomes.

[7] = Negative control: mouse liver microsomes without cofactors; type: in vitro ADME; details: for Metabolic stability, Negative Control (% remaining): microsomes without cofactors
Procedure: as §1, §2

[8] = Plasma pharmacokinetics in mice, 10 mg/kg i.v. and p.o.
Procedure: (§3) Plasma was harvested from blood by centrifugation. Additionally at two selected time points (i.e. 30 min and 2 h) brains were collected following both oral and IV dosing. Samples were extracted from plasma by a single one-step protein precipitation method (as described in bioanalysis section below). For brain tissue, whole brains were weighed and homogenized in two times the volume of acetonitrile, followed by vortexing and centrifugation. Once extracted, the samples were analyzed via LC/MS/MS (as described in bioanalysis section below). Non-compartmental-analysis module in WinNonlin™ (version 5.3) was used to assess pharmacokinetic parameters including maximal concentration (Cmax), time to Cmax (Tmax), area under the curve (AUClast), area extrapolated to infinity (AUC0-∞), terminal disposition rate constant (ke), and terminal half-life (t½).
(§4) Briefly, plasma samples were thawed on ice prior to extraction. Samples (50 μL) were extracted in 300 μL acetonitrile containing 1000 nM losartan as internal standard. For brain, 50 μL of the supernatant from homogenized tissue was extracted with 100 μL acetonitrile containing 1000 nM losartan as internal standard. Extracts were centrifuged at 16000×g at 4° C. for 10 minutes. Supernatants were transferred to a new siliconized tube and dried under N2 at 45° C. for 30 min. Samples were reconstituted with 100 μL of 30% acetonitrile, vortexed and centrifuged. Supernatants (95 μL) were transferred to a 250 μL polypropylene autosampler vials sealed with a Teflon cap and a volume of 10 μL was injected onto the ultra-performance liquid chromatography (UPLC) instrument for quantitative analysis using a temperature-controlled autosampler operating at 10° C.
(§5) The instrument was controlled by the Xcalibur software 2.3 (Thermo Scientific). Samples were introduced to the interface through Turbo Ion Spray with the temperature setting at 350° C.
(§6) Chromatographic analysis was performed using an Accela™ ultra high-performance system consisting of an analytical pump, and an autosampler coupled with TSQ Vantage mass spectrometer (Thermo Fisher Scientific Inc., Waltham Mass.).

[9] = Brain concentrations in mice after IV and PO dosing at 10 mg/kg; details: for concentration at 0.5 h / concentration at 2 h: male, CD1, mouse, in vivo, 10 mg/kg
Procedure: as §3, §4, §5, §6

Swiss Webster mice = experiment: Mouse locomotor activity test; details: up to 30 mg/kg, versus cocaine
[10] = male, CD1, mouse, in vivo, iv, 10 mg/kg
[11] = male, CD1, mouse, in vivo, po, 10 mg/kg

Chain of serotonin transporter (SERT) (P31652 whole entry): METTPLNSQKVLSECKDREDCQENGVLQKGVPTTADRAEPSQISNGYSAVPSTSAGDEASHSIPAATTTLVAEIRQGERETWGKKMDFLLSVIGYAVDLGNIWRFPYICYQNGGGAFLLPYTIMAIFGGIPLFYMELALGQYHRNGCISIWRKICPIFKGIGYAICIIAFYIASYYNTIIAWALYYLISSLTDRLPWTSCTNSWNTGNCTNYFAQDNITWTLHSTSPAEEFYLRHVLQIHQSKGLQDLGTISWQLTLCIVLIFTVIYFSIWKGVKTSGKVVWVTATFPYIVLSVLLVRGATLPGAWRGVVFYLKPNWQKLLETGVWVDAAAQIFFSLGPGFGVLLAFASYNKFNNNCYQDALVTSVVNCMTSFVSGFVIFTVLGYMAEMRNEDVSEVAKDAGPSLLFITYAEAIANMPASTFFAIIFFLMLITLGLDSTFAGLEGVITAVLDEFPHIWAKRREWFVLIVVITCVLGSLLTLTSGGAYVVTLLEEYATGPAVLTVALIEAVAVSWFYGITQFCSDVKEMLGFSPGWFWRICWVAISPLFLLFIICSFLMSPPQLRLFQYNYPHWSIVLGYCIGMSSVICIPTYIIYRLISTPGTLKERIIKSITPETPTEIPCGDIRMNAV
Chain of dopamine transporter (DAT) (P23977 whole entry): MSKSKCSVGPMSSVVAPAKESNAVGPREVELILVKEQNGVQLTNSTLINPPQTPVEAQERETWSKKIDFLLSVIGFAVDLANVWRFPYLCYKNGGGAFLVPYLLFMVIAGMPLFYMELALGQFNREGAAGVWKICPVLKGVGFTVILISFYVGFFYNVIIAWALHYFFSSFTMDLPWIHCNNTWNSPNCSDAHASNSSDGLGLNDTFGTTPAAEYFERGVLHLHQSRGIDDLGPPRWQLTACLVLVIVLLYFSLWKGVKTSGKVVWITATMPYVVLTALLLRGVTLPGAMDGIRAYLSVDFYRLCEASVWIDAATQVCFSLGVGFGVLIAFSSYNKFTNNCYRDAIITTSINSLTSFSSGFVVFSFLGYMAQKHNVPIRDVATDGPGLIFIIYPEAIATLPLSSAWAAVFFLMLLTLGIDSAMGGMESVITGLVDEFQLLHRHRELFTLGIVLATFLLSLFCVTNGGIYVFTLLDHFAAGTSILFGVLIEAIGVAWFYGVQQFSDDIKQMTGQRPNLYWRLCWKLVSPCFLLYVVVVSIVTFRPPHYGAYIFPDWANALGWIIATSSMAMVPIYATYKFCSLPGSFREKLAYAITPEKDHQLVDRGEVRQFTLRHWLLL
Chain of norepinephrine transporter (NET) (Q63380 1-617): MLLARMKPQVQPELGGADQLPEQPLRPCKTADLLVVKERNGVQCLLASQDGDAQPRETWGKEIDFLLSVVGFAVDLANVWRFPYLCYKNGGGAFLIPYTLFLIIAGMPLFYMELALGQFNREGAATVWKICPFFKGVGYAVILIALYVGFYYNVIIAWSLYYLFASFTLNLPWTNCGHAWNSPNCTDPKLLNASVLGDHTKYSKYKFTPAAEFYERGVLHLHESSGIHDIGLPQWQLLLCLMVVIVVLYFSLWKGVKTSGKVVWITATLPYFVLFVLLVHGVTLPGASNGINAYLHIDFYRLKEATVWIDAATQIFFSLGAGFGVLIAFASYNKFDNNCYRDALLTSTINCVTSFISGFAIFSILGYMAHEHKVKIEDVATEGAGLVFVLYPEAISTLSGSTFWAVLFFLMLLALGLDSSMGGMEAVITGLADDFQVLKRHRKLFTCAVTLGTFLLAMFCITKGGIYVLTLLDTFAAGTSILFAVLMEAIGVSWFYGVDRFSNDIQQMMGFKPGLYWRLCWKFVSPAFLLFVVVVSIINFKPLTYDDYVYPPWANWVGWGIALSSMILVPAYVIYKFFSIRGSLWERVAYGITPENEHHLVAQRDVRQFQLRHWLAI

## O=C(CSC(c1ccccc1)c1ccccc1)NCC1CC1 [Compound 2o, 2-(Benzhydrylthio)-N-(cyclopropylmethyl)acetamide]
[1]
  Ki: 13900 nM
[2]
  Ki: > 100000 nM
[3]
  Ki: 20.9 µM

## NC(=O)C[S+]([O-])C(c1ccccc1)c1cccc(Br)c1 (stereo not drawn) [Compound 3e, 2-(((3-Bromophenyl)(phenyl)methyl)sulfinyl)acetamide]
[1]
  Ki: 550 ± 7.4 nM
[2]
  Ki: > 100000 nM
[3]
  Ki: > 100 µM

## Cc1cc(=O)oc2cc(O)ccc12 [4 Methyl Umbelliferone, 4-methylumbelliferone, reference compound]
[4]; 0 min
  Metabolic stability, Phase II (% remaining): 100%
[4]; 60 min
  Metabolic stability, Phase II (% remaining): 3.10%

## O=C(CSC(c1ccc(F)cc1)c1ccc(F)cc1)NCC1CC1 [Compound 2p, 2-((Bis(4-fluorophenyl)methyl)thio)-N-(cyclopropylmethyl)acetamide]
[1]
  Ki: 6860 nM
[2]
  Ki: 57600 nM
[3]
  Ki: 35.4 µM

## C[C@]12CC[C@H]3[C@@H](CCC4=CC(=O)CC[C@@]43C)[C@@H]1CC[C@@H]2O [Testosterone, reference compound]
[5]; 0 min
  Metabolic stability, Phase I (% remaining): 100%
[5]; 60 min
  Metabolic stability, Phase I (% remaining): 0%

## NC(=O)C[S+]([O-])C(c1cccc(F)c1)c1cccc(F)c1 (stereo not drawn) [Compound 3c, 2-((Bis(3-fluorophenyl)methyl)sulfinyl)acetamide]
[1]
  Ki: 6180 nM
[2]
  Ki: > 100000 nM
[3]
  Ki: > 100 µM

## Fc1ccc(C(SCCNCCCc2ccccc2)c2ccc(F)cc2)cc1 [Compound 4g, N-(2-((bis(4-fluorophenyl)methyl)thio)ethyl)-3-phenylpropan-1-amine]
[6]; 0 min
  Metabolic stability, Plasma (% remaining): 100%
[6]; 15 min
  Metabolic stability, Plasma (% remaining): 100%
[6]; 30 min
  Metabolic stability, Plasma (% remaining): 99%
[6]; 60 min
  Metabolic stability, Plasma (% remaining): 103%
[6]; over a period of 60 minutes
  stability in mouse plasma: stable
[5]; 0 min
  Metabolic stability, Phase I (% remaining): 100%
[5]; 30 min
  Metabolic stability, Phase I (% remaining): 95%
[5]; 60 min
  Metabolic stability, Phase I (% remaining): 77%
[4]; 0 min
  Metabolic stability, Phase II (% remaining): 100%
[4]; 15 min
  Metabolic stability, Phase II (% remaining): 90%
[4]; 30 min
  Metabolic stability, Phase II (% remaining): 77%
[4]; 60 min
  Metabolic stability, Phase II (% remaining): 50%
[7]; 0 min
  Metabolic stability, Negative Control (% remaining): 100%
[7]; 15 min
  Metabolic stability, Negative Control (% remaining): 104%
[7]; 30 min
  Metabolic stability, Negative Control (% remaining): 97%
[7]; 60 min
  Metabolic stability, Negative Control (% remaining): 119%
[7]; mouse liver microsomes, no NADPH/UDPGA
  metabolism in microsomes without the cofactors: No metabolism was observed
[8]; male, CD1, mouse, in vivo, 10 mg/kg, F % (absolute bioavailability), mouse, 10 mg/kg P.O. versus I.V.
  bioavailability: ~10%
[8]; [10]
  AUC(0-inf): 2040 µg·h/mL
  AUC(0-t): 1.96 µg·h/mL
  Tmax: 4.8 min
[8]; [11]
  AUC(0-inf): 203 µg·h/mL
  AUC(0-t): 0.155 µg·h/mL
  Tmax: 30 min
[8]; mouse plasma, 10 mg/kg I.V.
  Ke: 0.6952
[9]; iv
  concentration at 0.5 h: 4780 ng/g
  concentration at 2 h: 14100 ng/g
[9]; po
  concentration at 0.5 h: 369 ng/g
  concentration at 2 h: 223 ng/g
[9]; mouse, following both p.o. and i.v. dosing
  brain penetrability: excellent brain penetrability
Swiss Webster mice
  locomotor stimulation (ambulatory distance): does not produce locomotor stimulation

## Cc1ccc(C(c2ccc(C)cc2)[S+]([O-])CC(N)=O)cc1 (stereo not drawn) [Compound 3a, 2-((Di-p-tolylmethyl)sulfinyl)acetamide]
[1]
  Ki: 12700 nM
[2]
  Ki: > 100000 nM
[3]
  Ki: > 100 µM

## O=C(CSC(c1ccc(Br)cc1)c1ccc(Br)cc1)NCC1CC1 [Compound 2q, 2-((Bis(4-bromophenyl)methyl)thio)-N-(cyclopropylmethyl)acetamide]
[1]
  Ki: 993 ± 139 nM
[2]
  Ki: > 100000 nM
[3]
  Ki: 7.27 µM

## CCN(CC)CCOC(=O)c1ccc(N)cc1 [Procaine, reference compound]
[6]; 0 min
  Metabolic stability, Plasma (% remaining): 100%
